Measurements published in publication PMC3081663 (Journal of Natural Products, 2011).

What was measured:
[1] = test system: phosphorylation of histone H2AX in MCF7 cells; test: In-cell Western assay for phosphorylation of histone H2AX; type: cell-based; conditions: 4 h
MCF-7 = conditions: MCF7 cells, 72 h treatment
panel of cell lines = test: Cytotoxicity in a panel of cell lines; type: cell-based
MDR1/MRP in HCT-15 cells = type: cell-based
[2] = test system: phosphorylation of histone H2AX in HCT-15 cells; test: In-cell Western assay for phosphorylation of histone H2AX; type: cell-based; conditions: 4 h of drug treatment
supercoiled plasmid DNA = test: In vitro DNA damage assay; type: biochemical
[3] = test system: cell lines in which MDR1 was overexpressed; conditions: MDR1 overexpressed by drug selection or transfection; cited from earlier work
[4] = test system: human colon carcinoma cell line LS174T; conditions: LS174T subcutaneously implanted in nude mice; cited from earlier work

With CC(C)(O)CCc1ccc(O)c2c(=O)c3c(O)c4c(cc3oc12)O[C@H]1OCC[C@@]41O [dihydro-austocystin D] the “induction of the DNA damage response (phosphorylation of histone H2AX)” value [1] was “very weak” and the “cytotoxicity (growth inhibition)” value (MCF-7) was “very weak”.

In the case of CC(C)(O)CCc1ccc(O)c2c(=O)c3c(O)c4c(cc3oc12)O[C@H]1OC=C[C@@]41O [austocystin D], the GI50 (panel of cell lines; 72 h, read-out: GI50 values for three cell lines) is reported as under 10 nM, the “selectivity between sensitive and resistant cell lines” value (panel of cell lines; 72 h cytotoxicity panel) is reported as “over 1000 fold” and the “inhibition of calcein-AM efflux (retention of calcein)” value (MDR1/MRP in HCT-15 cells) is reported as “inhibited efflux of calcein-AM”. The “induction of phosphorylation of histone H2AX” value [2] was “induced the phosphorylation of histone H2AX”, the “requirement for increased nicked DNA” value (supercoiled plasmid DNA; 1 μM austocystin D with different additives) was “only in the presence of both liver microsomes and the NADPH regenerating system” and the “concentration causing direct DNA damage (nicking of supercoiled plasmid DNA)” value (supercoiled plasmid DNA; human liver microsomes and NADPH regenerating system, 4 h, 37 °C) was 100 nM. For the same molecule, the “fold more potent in cell lines in which MDR1 was overexpressed” value [3] was 20 fold and the “tumor growth in vivo” value [4] was “inhibited the growth”.

In the case of CC(=O)N1CCN(c2ccc(OCC3COC(Cn4ccnc4)(c4ccc(Cl)cc4Cl)O3)cc2)CC1 (centres unmarked) [ketoconazole], the “effect on austocystin D cytotoxicity” value (HCT-15) is reported as “fully prevented”.

For bleomycin, the “induction of phosphorylation of histone H2AX” value [2] was “induced dose-dependent phosphorylation of histone H2AX”.

For COc1cccc2c1C(=O)c1c(O)c3c(c(O)c1C2=O)C[C@@](O)(C(=O)CO)C[C@@H]3O[C@H]1C[C@H](N)[C@H](O)[C@H](C)O1 [doxorubicin], the “induction of phosphorylation of histone H2AX” value [2] was “induced dose-dependent phosphorylation of histone H2AX”.

With CC[C@@]1(O)C(=O)OCc2c1cc1n(c2=O)Cc2cc3ccccc3nc2-1 [camptothecin] the “induction of phosphorylation of histone H2AX” value [2] was “induced dose-dependent phosphorylation of histone H2AX”.
